Experiments:
[1] = system: indoleamine-pyrrole 2,3-dioxygenase (IDO)-expressing UCMSCs; test: Priming of UCMSCs with IFN-γ, percentage of IDO-expressing UCMSCs by flow cytometry; assay type: cell-based, human
Protocol: UCMSCs culture as described in Item 2 of the General Experimental Materials were divided into 6 groups, namely, a control group (CG), and 5 experimental groups, i.e., experimental group 1 to 5 (EG1 to EG5), with the number of UCMSCs in each group being 5.8×10^5 cells. Next, the UCMSCs in the EG1 to EG5 were subjected to priming by treating with different concentrations of IFN-γ, i.e., 50, 100, 200, 250 and 500 U/mL of IFN-γ, respectively, for 72 hours, while the UCMSCs in the CG were not subjected to any treatment. For identification of IDO-expressing UCMSCs, the cells in each group were stained with phycoerythrin-conjugated IDO monoclonal antibody (Manufacturer: Thermo Fisher Scientific; Catalogue no.: 12-9477-42) while phycoerythrin-conjugated mouse IgG1 kappa isotype control (Manufacturer: Thermo Fisher Scientific; Catalogue no.: 12-4714-82) served as the control antibody, followed by subjecting the stained cells to flow cytometry conducted using CytoFLEX Flow Cytometer (Beckman Coulter), so as to determine the percentage of IDO-expressing UCMSCs in each group.
In brief, the UCMSCs culture as described in Item 2 of the General Experimental Materials were divided into 9 groups, namely, three control groups, i.e., control groups 1 to 3 (CG1 to CG3), and 6 experimental groups, i.e., experimental group 1-1 (EG1-1), experimental group 1-2 (EG1-2), experimental group 2-1 (EG2-1), experimental group 2-2 (EG2-2), experimental group 3-1 (EG3-1) and experimental group 3-2 (EG3-2), with the number of UCMSCs in each group being 5.8×10^5 cells. Next, the UCMSCs in the EG1-1, EG2-1, and EG3-1 were subjected to priming by treating with 250 U/mL of IFN-γ for 24 hours, 48 hours, and 72 hours, respectively, the UCMSCs in EG1-2, EG2-2, and EG3-2 were treated with 500 U/mL of IFN-γ for 24 hours, 48 hours, and 72 hours, respectively, while the UCMSCs in the CG1, CG2 and CG3 were not subjected to any treatment and were left to stand for 24 hours, 48 hours, and 72 hours, respectively. […]

IDO gene in UCMSCs = test: Priming of UCMSCs with IFN-γ in combination with a supplement, IDO gene mRNA by real-time PCR; assay type: cell-based, human; settings: 250 U/mL of IFN-γ in combination with the supplement, 72 hours; compared with comparative group (IFN-γ only)
Protocol: In order to determine whether addition of a supplement, which is selected from one of vitamin, steroid, cytokine, double-stranded RNA, and histone deacetylase (HDAC) inhibitor, enhanced the effect of IFN-γ in the priming of UCMSCs, the following experiments were conducted.
In brief, UCMSCs culture as described in Item 2 of the General Experimental Materials were divided into 8 groups, namely, a normal control group (NCG), a comparative group (CG) and 6 experimental groups, i.e., experimental group 1 to experimental group 6 (EG1 to EG6), with the number of UCMSCs in each group being 5.8×10^5 cells. Next, the UCMSCs in each group were subjected to priming, in which the UCMSCs in the CG were treated with 250 U/mL of IFN-γ for 72 hours, the UCMSCs in a respective one of the EG1 to EG6 were treated with 250 U/mL of IFN-γ in combination with 1 μM of retinoic acid, 1 μg/mL of dexamethasone, 10 ng/mL of TNF-α, 25 μg/mL of polyinosinic acid-polycytidylic acid, 0.5 mM of valproic acid, and 1 μM of budesonide, respectively, for 72 hours, while the UCMSCs in the NCG were not subjected to any treatment and were left to stand for 72 hours.

Compound	percentage of IDO-expressing UCMSCs ([1]; 50, 100, 200, 250 and 500 U/mL of IFN-γ, 72 hours, compared with control group, concentration dependent)	percentage of IDO-expressing UCMSCs ([1]; 250 or 500 U/mL of IFN-γ for 24, 48 or 72 hours, compared with the untreated control group of the same time)	percentage of IDO-expressing UCMSCs ([1]; 250 or 500 U/mL of IFN-γ, 72 hours compared with 48 hours and 24 hours)	relative mRNA expression level of IDO gene (IDO gene in UCMSCs)
IFN-γ: cytokine used for priming of UCMSCs	higher	higher	higher	–
CCCC(CCC)C(=O)O [valproic acid]	–	–	–	higher
TNF-α	–	–	–	higher
polyinosinic acid-polycytidylic acid	–	–	–	higher
